Measured values as given in patent publication US20070141120A1, “Peptide having an ace inhibiting effect” (priority 2003, published 2007).
Peptide text beside a SMILES is read from it.

Legend:
ACE [1] = target: ACE (Homo sapiens, UniProt P12821); assay: ACE-inhibition assay 1: enzyme based assay (EBA); format: biochemical; conditions: substrate Abz-FRK-(Dnp)P-OH, pH 7.0, fluorescence
Experimental: ACE and a synthetic substrate (Abz-FRK-(Dnp)P-OH) were used in the ACE-inhibition assay performed in white optiplate-96 microplates (Packard Bioscience). The substrate was a kind gift of Adriana K. Carmona (Dept. of Biophysics, Escola Paulista de Medivina, Universidae Federal de Sao Paulo, Brazil). Stock solutions of Abz-FRK-(Dnp)P-OH were prepared in DMSO. […] The assay buffer composition was 100 mM tris/HCl buffer pH 7.0 containing 100 mM NaCl. Forty μl sample solution in assay buffer was added to each well. In case of the controls only buffer was added. The samples were measured in threefold in a fluorophotometer (Fluostar, BMG labtechnologies). […] The ACE activity was measured for 10 cycles (about 10 minutes) by measuring the fluorescence at λex=320 nm and ξem=420 nm. The raw data was converted to the slope/sec and the ACE inhibition activity was calculated using the equation below. ACE inhibition (%)=[1−(Smean−Bmean)/(Cmean−Bmean)]*100
Bmean=average result of background (substrate)

ACE [2] = assay: ACE-inhibition assay 2: modified Matsui assay; format: biochemical; conditions: substrate Hip-His-Leu, pH 8.3, 37° C., 30 min
Experimental: This ACE inhibition activity was assayed according to the method of Matsui et al. (Matsui, T. et al. (1992) Biosci. Biotech. Biochem. 56: 517-518) with the modifications described below.
For each sample 75 μl 3 mM hippuryl histidine leucine (Hip-His-Leu, Sigma chemicals Co.; the chemical was dissolved in 250 mM Borate containing 200 mM NaCl, pH 8.3); 20 μl 0.1 U/ml ACE (obtained at Sigma) or H2O, and 25 μl sample or H2O were mixed (see Table 1). The mixtures were incubated at 37° C. and stopped after 30 min by adding 125 μl 0.5 M HCl. Subsequently, 225 μl bicine/NaOH solution (1 M NaOH:0.25 M bicine (4:6)) was added, followed by 25 μl 0.1 M TNBS (2,4,6-Trinitrobenzenesulfonic acid, Fluka, Switzerland; in 0.1 M Na2HPO4). After incubation for 20 min. at 37° C., 4 ml 4 mM Na2SO3 in 0.2 M NaH2PO4 was added and the absorbance at 416 nm was measured with UV/Vis spectrophotometer (Shimadzu UV-1601 with a CPS controller, Netherlands).
The amount of ACE inhibition (ACEI) activity was calculated as a percentage of inhibition compared with the conversion rate of ACE in the absence of an inhibitor: ACEI (%)=(((C1−C2)−(S1−S2))/(C1−C2))*100 (1)
C1=Absorbance without ACE inhibitory component (=max. ACE activity) [AU].
C2=Absorbance without ACE inhibitory component and without ACE (background) [AU].
S1=Absorbance in the presence of ACE and the ACE inhibitory component [AU].
S2=Absorbance in the presence of the ACE inhibitory component, but without ACE [AU].

Caco-2 cells = assay: Stability during exposure to Caco-2 cells (LC-MS); conditions: up to 360 min, peptide mixtures
Experimental: Caco-2 cells were obtained from American Type Culture Collection (ATCC) and used in experiments at passage 30-40. Cells were cultured in 75 cm^2 culture flasks (Corning Costar, Badhoevedorp, The Netherlands). The culture medium consisted of DMEM (high glucose, with L-glutamine) supplemented with 20% (v/v) foetal bovine serum, 1% (v/v) penicillin/streptomycin solution and 1% (v/v) NEAA. Cells were maintained at 37° C. in a humidified atmosphere of 5% CO2 in air. For stability experiments, cells were seeded on 12 well cell culture plates (Costar, Badhoevedorp, The Netherlands) and cultured for at least 21 days.
Cells were cultured in 12-well plates. Peptide mixtures were added to culture medium without foetal bovine serum, but containing 20% (v/v) solid phase extracted foetal bovine serum. […] For Caco-2 cells, 330 μl medium containing 0.1, 1 and 10 μg/ml peptide was added to each well of the culture plate. Three times 110 μl medium was collected at 0, 5, 10, 20, 30, 60, 90, 180 and 360 min of incubation. Experiments were performed in triplicate and all samples were directly placed on dry-ice and stored at −20° C. […] Wells without cells served as controls.
(§1) All measurements were carried out on a Waters Quattro-II or Quattro-Ultima triple quadrupole mass spectrometer. The LC separation was carried out at 25° C. on a Inertsil 5 ODS3 column, 150×2.1 mm, packed with 3 μm particles (Chompack) using 0-50% acetonitrile/0.1% (v/v) TFA. For analyses, 5 μl sample was injected onto the column. The flow rate through the column was 0.2 ml/min. The total flow after post-column makeup was 0.05 ml/min and contained a 7/3 (v/v) mixture of propionic acid and propanol-2. Gradient effluent was analysed using MRM mass spectrometry in positive-ESI mode. Capillary voltage was 4 kV. Source and nebulizer temperature were 100° C. and 250° C., repsectively. Drying and nebuliser gas flow were 300 l/h and 17 l/h, respectively. Collision gas was argon at a pressure of 7.9 e-4 mbar.

HUVEC cells = assay: Stability during exposure to HUVEC cells (LC-MS); conditions: up to 120 min, peptide mixtures
[3] = Stability during exposure to human serum (LC-MS); conditions: 37° C., up to 360 min, peptide mixtures
Experimental: Samples of 1.5 ml were collected in eppendorf vials at each of the time points. […] Samples were subsequently incubated for 5 min at 100° C. and then centrifugated in an IEC Micromax RF centrifuge (Boom BV Meppel) at 10.000 rpm for 20 minutes. The supernatant was collected in eppendorf vials and stored at −20° C. for further analysis. Experiments were performed in triplicate.
as §1

[4] = In vitro gastrointestinal digestion (GI conditions); conditions: simulated gastric fluid pH 3.5 60 min, then intestinal fluid pH 6.8 120 min, 37° C.
Experimental: The stability of peptides in the human gastrointestinal tract was studied by subjecting fermented or hydrolysed milk proteins to typical conditions in the stomach and small intestine. Gastric conditions were mimicked by dissolving 80 ml fermented or hydrolysed milk protein in 820 ml water contianing 2.0 g NaCl, 2.9 g pepsin and 0.45 g Amano Lipase F-AP15 from Rhizopus oryzae. The fluid was adjusted to pH 3.5 with HCl, stirred with a peddle (50 rpm) and kept at 37° C. for 60 min. […] The simulated intestinal fluid was stirred with a peddle (50 rpm) and kept at 37° C. for 120 min. Samples were collected at different time points during the in vitro gastrointestinal digestion. After collection, samples were directly heated at 95° C. for 30 min and subsequently stored at −20° C.

[5] = in sour milk, hypertensive humans, placebo-controlled; cited from earlier work

ACE (Homo sapiens, UniProt P12821), sequence (P12821 30-1306, species assumed): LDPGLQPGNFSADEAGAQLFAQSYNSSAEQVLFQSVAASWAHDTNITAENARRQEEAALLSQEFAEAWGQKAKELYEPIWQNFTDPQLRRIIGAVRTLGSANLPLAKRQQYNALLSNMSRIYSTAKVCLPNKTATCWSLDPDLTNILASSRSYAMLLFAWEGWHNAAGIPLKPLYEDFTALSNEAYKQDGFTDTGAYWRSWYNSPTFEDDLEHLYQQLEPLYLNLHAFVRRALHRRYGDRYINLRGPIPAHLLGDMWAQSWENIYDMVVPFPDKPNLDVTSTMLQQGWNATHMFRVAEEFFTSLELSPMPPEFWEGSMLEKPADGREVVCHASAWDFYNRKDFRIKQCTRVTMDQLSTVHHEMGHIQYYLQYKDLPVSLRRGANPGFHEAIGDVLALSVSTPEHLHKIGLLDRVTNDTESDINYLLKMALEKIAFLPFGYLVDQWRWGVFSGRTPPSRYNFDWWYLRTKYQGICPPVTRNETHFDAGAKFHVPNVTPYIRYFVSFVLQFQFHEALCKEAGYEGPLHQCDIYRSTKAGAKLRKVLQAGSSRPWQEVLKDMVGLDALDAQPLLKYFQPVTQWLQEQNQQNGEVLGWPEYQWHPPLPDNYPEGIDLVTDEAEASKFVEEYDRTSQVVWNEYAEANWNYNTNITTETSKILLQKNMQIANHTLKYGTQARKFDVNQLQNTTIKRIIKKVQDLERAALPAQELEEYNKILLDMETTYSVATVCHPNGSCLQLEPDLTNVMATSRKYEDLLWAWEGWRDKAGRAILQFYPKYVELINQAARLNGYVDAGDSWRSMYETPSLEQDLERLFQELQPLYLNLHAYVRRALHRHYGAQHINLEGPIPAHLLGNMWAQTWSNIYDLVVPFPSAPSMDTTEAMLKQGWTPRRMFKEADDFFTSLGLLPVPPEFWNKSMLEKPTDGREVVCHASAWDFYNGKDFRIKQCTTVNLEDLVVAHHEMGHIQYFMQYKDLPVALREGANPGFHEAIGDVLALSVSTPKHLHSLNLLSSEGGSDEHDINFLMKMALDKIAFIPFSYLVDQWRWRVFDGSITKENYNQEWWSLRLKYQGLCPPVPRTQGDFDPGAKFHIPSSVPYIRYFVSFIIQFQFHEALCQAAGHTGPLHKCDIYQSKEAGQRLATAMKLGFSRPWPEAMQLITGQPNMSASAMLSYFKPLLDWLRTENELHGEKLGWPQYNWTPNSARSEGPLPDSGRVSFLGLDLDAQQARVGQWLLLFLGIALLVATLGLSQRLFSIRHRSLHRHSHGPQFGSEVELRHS

| SMILES | IC50 (ACE [1]) [µM] | IC50 (ACE [2]) [µM] | Stability, Caco-2 (Caco-2 cells) | Stability, HUVEC (HUVEC cells) | Stability, Serum [3] | Stability, GI conditions [4] | Blood pressure effect [5] |
| --- | --- | --- | --- | --- | --- | --- | --- |
| N[C@@H](CS)C(=O)N1CCC[C@H]1C(=O)N1CCC[C@H]1C(=O)O [CPP] (H-Cys-Pro-Pro-OH; N-terminus and C-terminus assumed) | 5 | 4 |  |  |  |  |  |
| N[C@@H](Cc1ccccc1)C(=O)N[C@@H](Cc1ccc(O)cc1)C(=O)O [FY] (H-Phe-Tyr-OH; N-terminus and C-terminus assumed) | 20 | 10 | +/− | − | + |  |  |
| CC[C@H](C)[C@H](N)C(=O)N1CCC[C@H]1C(=O)N1CCC[C@H]1C(=O)O [IPP] |  |  | − | + | +/− | + | blood pressure lowering effect |
| NCCCC[C@H](N)C(=O)N1CCC[C@H]1C(=O)N1CCC[C@H]1C(=O)O [KPP] (H-Lys-Pro-Pro-OH; N-terminus and C-terminus assumed) | > 50 |  |  |  |  |  |  |
| CC(C)C[C@H](NC(=O)[C@@H](NC(=O)[C@@H](N)CCCCN)C(C)C)C(=O)N1CCC[C@H]1C(=O)N[C@H](C(=O)N1CCC[C@H]1C(=O)O)C(C)C [KVLPVP] (H-KVLPVP-OH; N-terminus and C-terminus assumed) |  | 2 | − | − | − |  |  |
| CSCC[C@H](N)C(=O)N1CCC[C@H]1C(=O)N1CCC[C@H]1C(=O)O [MPP] (H-Met-Pro-Pro-OH; N-terminus and C-terminus assumed) | 10 | 7 | − | + | +/− |  |  |
| CC(C)[C@H](N)C(=O)N1CCC[C@H]1C(=O)N1CCC[C@H]1C(=O)O [VPP] |  |  |  |  |  |  | blood pressure lowering effect |

More lines, main results first:

| IC50 (ACE [1]) [µM] | IC50 (ACE [2]) [µM] | Stability, Caco-2 (Caco-2 cells) | Stability, HUVEC (HUVEC cells) | Stability, Serum [3] | Stability, GI conditions [4] | SMILES | Blood pressure effect [5] |
| --- | --- | --- | --- | --- | --- | --- | --- |
| > 50 |  | − | +/− | − |  | CC[C@H](C)[C@H](NC(=O)[C@@H]1CCCN1)C(=O)N1CCC[C@H]1C(=O)O [PIP] (H-Pro-Ile-Pro-OH; N-terminus and C-terminus assumed) |  |
| > 50 |  | − | +/− | − |  | CC(C)C[C@H](NC(=O)[C@@H]1CCCN1)C(=O)N1CCC[C@H]1C(=O)O [PLP] (H-Pro-Leu-Pro-OH; N-terminus and C-terminus assumed) |  |
| 35 | 15 | + | + | +/− |  | C[C@@H](O)[C@H](N)C(=O)N1CCC[C@H]1C(=O)N1CCC[C@H]1C(=O)O [TPP] (H-Thr-Pro-Pro-OH; N-terminus and C-terminus assumed) |  |
| 4 | 1 | − | − | − |  | CC(C)[C@H](N)C(=O)N[C@@H](C)C(=O)N1CCC[C@H]1C(=O)O [VAP] (H-Val-Ala-Pro-OH; N-terminus and C-terminus assumed) |  |
|  |  | +/− | − | +/− |  | CC(C)[C@H](N)C(=O)N[C@@H](Cc1ccccc1)C(=O)O [VF] (H-Val-Phe-OH; N-terminus and C-terminus assumed) |  |
